Common to all, as to assay: Homologous whole cell competition binding
Common to all, as to details: homologous competition of 125I-sCT(8-32), whole cells, mean ± S.E.M., SEM

For experiment [1], the target named is T1, hCTR F285A (Homo sapiens, UniProt P30988, F285A).
T1 construct: expressed in transfected cells
T1 sequence (P30988 25-474 F285A): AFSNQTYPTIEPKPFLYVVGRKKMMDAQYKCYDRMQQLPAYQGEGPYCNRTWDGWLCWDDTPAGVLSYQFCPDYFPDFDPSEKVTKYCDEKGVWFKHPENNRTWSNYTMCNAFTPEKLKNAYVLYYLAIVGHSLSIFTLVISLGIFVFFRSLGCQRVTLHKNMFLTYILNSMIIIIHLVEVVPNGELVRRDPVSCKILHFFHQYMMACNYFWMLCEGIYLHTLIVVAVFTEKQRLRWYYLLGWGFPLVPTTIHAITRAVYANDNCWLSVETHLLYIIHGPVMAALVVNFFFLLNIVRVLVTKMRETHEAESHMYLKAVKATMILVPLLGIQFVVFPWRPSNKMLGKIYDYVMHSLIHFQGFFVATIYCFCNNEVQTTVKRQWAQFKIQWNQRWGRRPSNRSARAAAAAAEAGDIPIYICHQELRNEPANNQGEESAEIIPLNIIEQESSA
A digest of the protocol: (§1)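 Values are pKi, derived from IC50 of unlabelled sCT(8-32) displacing ^125I-sCT(8-32) (25–100 pM) from whole cells after overnight incubation at 4 °C. Specific binding was scaled between tracer-only total and 1 μM cold-peptide background.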

In experiment [2] the target is T2, hCTR G369A (Homo sapiens, UniProt P30988, G369A).
T2 construct: c-Myc (N); expressed in transfected cells
T2 sequence (P30988 25-474 G369A): T1 sequence (P30988 25-474 F285A) with A261F, G345A
The method, boiled down:
as §1

The target in experiment [3] is T3, hCTR P360A (Homo sapiens, UniProt P30988, P360A).
T3 construct: expressed in transfected cells
T3 sequence (P30988 25-474 P360A): T1 sequence (P30988 25-474 F285A) with A261F, P336A
A digest of the protocol: as §1

Experiment [4] concerns the target T4, hCTR R362A (Homo sapiens, UniProt P30988, R362A).
T4 construct: expressed in transfected cells
T4 sequence (P30988 25-474 R362A): T1 sequence (P30988 25-474 F285A) with A261F, R338A
A digest of the protocol:
as §1

Positions count from the first letter of the chain named. Where no end group is shown, it is not given here.

With “VLGKLSQELHKLQTYPRTNTGSGTP-NH2 [sCT(8-32)]”, the Ki (commonly the equilibrium dissociation constant of an inhibitor or competing ligand from its target) in experiment [1] was 0.102 nM; in experiment [2] it was 0.229 nM; in experiment [3], 0.603 nM; in experiment [4], 0.219 nM.

The values above are taken from PMC5908784, “Extracellular loops 2 and 3 of the calcitonin receptor selectively modify agonist binding and efficacy” (Biochemical Pharmacology, 2018).
